Data on three molecules can be found in patent US5519028A, “Antiviral preparations” (priority 1992, dated 1996).

Holding throughout (format): cell-based, human
In one experiment the test system is TNF-α. The experiment can be described thus: TNF-α production by monocytes of normal donors. To be noted: 1000 U/ml, 48 hours. As to the method:
(§1) The effects of flavopereirine on the production of primary (IL-1β and TNF-α) and secondary (IL-6) cytokines by monocytes was also tested. The adhesive monocytes used were taken from the blood of two types of donors:
(§2) Normal donors--voluntary blood donors who attended the blood bank of the Pitie-Salpetriere Hospital, Paris, France; and
(§3) Product H was not used in these experiments at a rate of more than 20 μg/ml water, since above this rate, net toxicity could have been produced.

The next experiment relates to IL-1β. Put plainly: IL-1β production by monocytes of normal donors. To be noted: 1000 U/ml, 48 hours; except donor #10. As to the method: as §1, §2, §3
The next experiment deals with interleukin-6. Put plainly: IL-6 production by monocytes of HIV-positive donors. As to the method:
as §1
HIV-positive donors from medical consultations. These individuals were in the early stages of HIV infection and, at the moment of taking the blood, were not undergoing any treatment. The risk factors involved were intravenous drug abuse for six of the donors, sexual transmission for three and blood transfusion (in Zaire) for one patient. No correlation was found between the risk factors and the results of the experiments.
The response of the monocytes taken from the various HIV-positive donors was tested in terms of spontaneous response. The quantities of cells received were low (the donors were not affected by cytapheresy), and the experiments were therefore limited by the number of cells available.
Interleukin-4 was used at the same time as flavopereirine H, since it has been shown prior to these experiments that this cytokine blocks the spontaneous production of interleukin-6 in certain HIV-positive patients.
In five cases, […] was used for comparison, since this, too, blocks the production of IL-6 in normal monocytes stimulated by LPS.

For the molecule “interferon: stimulation of monocytes over a period of 48 hours with interferon (1000 U/ml) [reference compound]”, the “production of primary cytokines (TNF-α)” value in the experiment on TNF-α is recorded as “did not cause any production of primary cytokines”. Further, the “production of primary cytokines (IL-1β)” value in the experiment with IL-1β is reported as “did not cause any production of primary cytokines, except in donor #10 in 1L-1β”.

Take “Interleukin-9: blocks the production of IL-6 in normal monocytes stimulated by LPS”: the “compound effect with interleukin-4 on IL-6 production” value in the experiment with interleukin-6 (combined with interleukin-4, five cases) is “never has a compound effect to that of interleukin-4”. For the same molecule, in the experiment with interleukin-6 (five cases), the “maximum inhibition of spontaneous production of IL-6” value is reported as at most 50%.

B1: Interleukin-4: cytokine that blocks the spontaneous production of interleukin-6 in certain HIV-positive patients (protein, UniProt P05112 25-153, looked up)
Interleukin-4: HKCDITLQEIIKTLNSLTEQKTLCTELTVTDIFAASKNTTEKETFCRAATVLRQFYSHHEKDTRCLGATAQQFHRHKQLIRFLKRLDRNLWGLAGLNSCPVKEANQSTLENFLERLKTIMREKYSKCSS
Consider B1, for which the “inhibition of production of IL-6” value with interleukin-6 (alone, never total, p<0.05) is recorded as “inhibited the production of IL-6, but this inhibition was never total”.
